Measured values taken from ChEMBL document CHEMBL4725220, “Small molecule inhibitors of IκB kinase β: A chip-based screening and molecular docking simulation” (Bioorg Med Chem, 2020).

Molecular target: T1, Inhibitor of nuclear factor kappa-B kinase subunit beta (Homo sapiens, UniProt O14920)
T1 sequence (O14920 whole entry): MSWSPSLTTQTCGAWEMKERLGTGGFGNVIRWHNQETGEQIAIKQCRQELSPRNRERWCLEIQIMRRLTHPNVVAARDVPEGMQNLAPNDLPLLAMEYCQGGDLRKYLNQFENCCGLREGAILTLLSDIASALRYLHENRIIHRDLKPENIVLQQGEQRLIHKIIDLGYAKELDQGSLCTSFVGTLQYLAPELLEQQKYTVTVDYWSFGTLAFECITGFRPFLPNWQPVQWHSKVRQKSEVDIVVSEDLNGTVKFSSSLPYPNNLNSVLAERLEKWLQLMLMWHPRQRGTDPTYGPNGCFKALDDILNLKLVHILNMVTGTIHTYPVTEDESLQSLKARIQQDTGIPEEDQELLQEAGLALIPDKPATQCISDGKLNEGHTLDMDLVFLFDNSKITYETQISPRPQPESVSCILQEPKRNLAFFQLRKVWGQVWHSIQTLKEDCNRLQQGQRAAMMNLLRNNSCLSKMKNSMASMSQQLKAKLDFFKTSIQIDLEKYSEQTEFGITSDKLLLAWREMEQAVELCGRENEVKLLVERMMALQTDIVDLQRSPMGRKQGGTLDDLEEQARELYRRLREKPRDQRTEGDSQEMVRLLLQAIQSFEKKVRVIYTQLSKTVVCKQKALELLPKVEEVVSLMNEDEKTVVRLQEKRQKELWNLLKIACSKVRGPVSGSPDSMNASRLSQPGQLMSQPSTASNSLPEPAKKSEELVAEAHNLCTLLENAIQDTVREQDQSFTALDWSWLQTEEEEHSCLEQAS
Assay: Inhibition of IKKbeta (unknown origin) assessed as substrate phosphorylation using IkappaBalpha as substrate incubated for 1 hr in presence of ATP by chip-based fluorescence assay

`O=C(c1ccc(Nc2nccc(-c3cc4ccccc4s3)n2)cc1)N1CCC(N2CCCC2)CC1` and `O=C(O)C1=CC(=C(c2ccc(O)c(C(=O)O)c2)c2ccc(O)c(C(=O)O)c2)C=CC1=O` [AURINTRICARBOXYLIC ACID] are within 1.5-fold of each other in IC50: 6.46 µM for the first, 5.4 µM for the second.

`O=C1C=C2C[C@]3(O)COc4c(ccc(O)c4O)C3=C2C=C1O` and `O=c1oc2c(O)c(O)cc3c(=O)oc4c(O)c(O)cc1c4c23` [ELLAGIC ACID] are within 1.5-fold of each other in IC50: 2.18 µM for the first, 1.98 µM for the second.

Compound `COc1ccc(-c2cc(=O)c3c(O)cc(O[C@@H]4O[C@H](CO[C@@H]5O[C@@H](C)[C@H](O)[C@@H](O)[C@H]5O)[C@@H](O)[C@H](O)[C@H]4O)cc3o2)cc1O` [DIOSMIN] has an IC50 of 3.89 µM.
